As usually defined, the IC50 is the midpoint of a concentration-inhibition curve. A lower IC50 goes with higher potency.

A short description of test [1]: cells. The following applies: Endothelial cell.
Test [2] deals with Vascular endothelial growth factor receptor 2 (Homo sapiens, UniProt P35968). The test can be described thus: Inhibition of FLK1.
Vascular endothelial growth factor receptor 2, sequence (P35968 whole entry): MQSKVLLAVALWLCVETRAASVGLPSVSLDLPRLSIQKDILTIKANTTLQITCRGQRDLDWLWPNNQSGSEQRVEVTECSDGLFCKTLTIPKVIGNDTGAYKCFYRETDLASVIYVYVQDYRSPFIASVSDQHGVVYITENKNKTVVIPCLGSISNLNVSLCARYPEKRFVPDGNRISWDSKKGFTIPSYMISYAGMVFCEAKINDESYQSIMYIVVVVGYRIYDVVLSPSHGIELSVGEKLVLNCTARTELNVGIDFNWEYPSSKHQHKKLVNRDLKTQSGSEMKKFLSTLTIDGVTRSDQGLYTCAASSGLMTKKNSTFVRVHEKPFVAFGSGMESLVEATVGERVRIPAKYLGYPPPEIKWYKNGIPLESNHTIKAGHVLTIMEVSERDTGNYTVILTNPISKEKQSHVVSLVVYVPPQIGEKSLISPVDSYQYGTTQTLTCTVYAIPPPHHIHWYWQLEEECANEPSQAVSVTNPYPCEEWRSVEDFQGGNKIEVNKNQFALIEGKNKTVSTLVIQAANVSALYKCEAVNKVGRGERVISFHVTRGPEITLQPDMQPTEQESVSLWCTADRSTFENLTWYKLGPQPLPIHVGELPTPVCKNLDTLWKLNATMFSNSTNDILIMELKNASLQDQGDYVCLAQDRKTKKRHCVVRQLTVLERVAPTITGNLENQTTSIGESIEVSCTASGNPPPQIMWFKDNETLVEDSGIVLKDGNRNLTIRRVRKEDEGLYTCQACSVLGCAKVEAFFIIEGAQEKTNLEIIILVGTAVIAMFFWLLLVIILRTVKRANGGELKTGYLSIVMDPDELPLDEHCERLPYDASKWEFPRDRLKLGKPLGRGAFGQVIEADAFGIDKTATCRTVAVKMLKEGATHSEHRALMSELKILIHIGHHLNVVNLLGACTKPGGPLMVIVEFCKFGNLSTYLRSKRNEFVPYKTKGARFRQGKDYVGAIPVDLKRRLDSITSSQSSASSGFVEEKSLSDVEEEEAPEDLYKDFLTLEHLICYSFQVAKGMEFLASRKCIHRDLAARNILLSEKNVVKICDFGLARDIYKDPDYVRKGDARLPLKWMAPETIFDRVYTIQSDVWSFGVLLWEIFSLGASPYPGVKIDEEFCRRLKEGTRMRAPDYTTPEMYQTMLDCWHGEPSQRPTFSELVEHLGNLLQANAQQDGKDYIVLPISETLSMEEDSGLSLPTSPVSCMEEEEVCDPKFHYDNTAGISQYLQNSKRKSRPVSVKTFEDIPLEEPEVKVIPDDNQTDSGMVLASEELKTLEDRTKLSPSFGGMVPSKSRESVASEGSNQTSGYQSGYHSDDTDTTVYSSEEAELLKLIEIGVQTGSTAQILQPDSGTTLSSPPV

As to `O=C1Nc2ccccc2/C1=C/c1ccc(F)cc1`, the 50% inhibitory concentration (IC50) in test [1] came to 5.1 µM; in test [2], 9.6 µM.

In test [1], `Cc1cc(C)c(/C=C2\C(=O)Nc3ccccc32)[nH]1` [SEMAXANIB] displayed an IC50 of under 0.8 µM.

Values taken from ChEMBL document CHEMBL1152667, “Synthesis and radiopharmacological investigation of 3-[4'-[(18)F]fluorobenzylidene]indolin-2-one as possible tyrosine kinase inhibitor” (Bioorg Med Chem, 2009).
